Results published in paper PMC4047469 (Molecular & Cellular Proteomics : MCP, 2014).

Key:
DDR2 = target: T1, DDR2 (Homo sapiens, UniProt Q16832); assay: autophosphorylation immunoblot; type: cell-based; conditions: 293T cells, collagen I 20 μg/ml, 120 min; E-3810 2, 8, 32 μM
T1 sequence (Q16832 22-855): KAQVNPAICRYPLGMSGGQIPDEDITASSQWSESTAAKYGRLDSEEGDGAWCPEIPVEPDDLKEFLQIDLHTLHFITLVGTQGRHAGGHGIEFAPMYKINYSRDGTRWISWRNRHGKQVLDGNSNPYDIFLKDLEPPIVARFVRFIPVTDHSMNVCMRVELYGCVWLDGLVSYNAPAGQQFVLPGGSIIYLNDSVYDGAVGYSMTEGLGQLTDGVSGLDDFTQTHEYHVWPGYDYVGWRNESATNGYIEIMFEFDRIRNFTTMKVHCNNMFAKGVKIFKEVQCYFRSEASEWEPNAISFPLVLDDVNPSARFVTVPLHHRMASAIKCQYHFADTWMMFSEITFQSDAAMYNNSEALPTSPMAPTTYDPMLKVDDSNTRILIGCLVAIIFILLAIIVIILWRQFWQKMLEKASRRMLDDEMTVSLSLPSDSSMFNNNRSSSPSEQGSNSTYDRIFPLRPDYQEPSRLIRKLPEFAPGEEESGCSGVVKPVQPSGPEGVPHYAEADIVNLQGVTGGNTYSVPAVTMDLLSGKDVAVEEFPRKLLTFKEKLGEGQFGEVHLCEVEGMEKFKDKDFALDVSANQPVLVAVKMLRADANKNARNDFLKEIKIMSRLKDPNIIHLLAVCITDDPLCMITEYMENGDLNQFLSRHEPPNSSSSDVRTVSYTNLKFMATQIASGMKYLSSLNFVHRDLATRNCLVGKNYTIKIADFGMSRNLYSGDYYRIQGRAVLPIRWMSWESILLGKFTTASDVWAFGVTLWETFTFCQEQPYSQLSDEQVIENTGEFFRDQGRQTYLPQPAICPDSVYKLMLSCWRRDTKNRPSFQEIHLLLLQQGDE

SRC = SRC (Homo sapiens, UniProt P12931); assay: radiometric filter-binding kinase assay; type: biochemical
FGFR2 = FGFR2 (Homo sapiens, UniProt P21802); assay: in vitro kinase assay; type: biochemical
Sequence of FGFR2 (P21802 22-821): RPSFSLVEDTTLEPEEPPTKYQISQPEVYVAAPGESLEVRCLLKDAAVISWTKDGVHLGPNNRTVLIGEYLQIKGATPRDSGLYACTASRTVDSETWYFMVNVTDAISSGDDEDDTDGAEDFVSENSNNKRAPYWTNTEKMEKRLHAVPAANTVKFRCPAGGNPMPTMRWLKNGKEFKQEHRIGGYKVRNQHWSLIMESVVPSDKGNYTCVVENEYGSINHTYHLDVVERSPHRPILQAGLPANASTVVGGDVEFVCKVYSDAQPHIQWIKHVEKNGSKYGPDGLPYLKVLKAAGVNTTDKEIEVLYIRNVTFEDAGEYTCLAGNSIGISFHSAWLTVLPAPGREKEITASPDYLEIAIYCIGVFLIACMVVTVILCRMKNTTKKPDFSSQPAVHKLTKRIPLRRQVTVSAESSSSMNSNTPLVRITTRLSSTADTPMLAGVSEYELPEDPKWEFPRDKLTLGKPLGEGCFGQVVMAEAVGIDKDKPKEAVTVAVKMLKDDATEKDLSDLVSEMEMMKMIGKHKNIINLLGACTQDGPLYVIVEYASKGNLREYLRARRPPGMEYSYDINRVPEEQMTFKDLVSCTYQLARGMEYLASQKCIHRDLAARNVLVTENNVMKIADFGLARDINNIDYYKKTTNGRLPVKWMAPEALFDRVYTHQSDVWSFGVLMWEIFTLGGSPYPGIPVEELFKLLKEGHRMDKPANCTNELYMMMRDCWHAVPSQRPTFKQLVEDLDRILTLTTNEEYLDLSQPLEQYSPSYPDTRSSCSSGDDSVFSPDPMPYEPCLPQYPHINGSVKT

Sequence of SRC (P12931 2-536): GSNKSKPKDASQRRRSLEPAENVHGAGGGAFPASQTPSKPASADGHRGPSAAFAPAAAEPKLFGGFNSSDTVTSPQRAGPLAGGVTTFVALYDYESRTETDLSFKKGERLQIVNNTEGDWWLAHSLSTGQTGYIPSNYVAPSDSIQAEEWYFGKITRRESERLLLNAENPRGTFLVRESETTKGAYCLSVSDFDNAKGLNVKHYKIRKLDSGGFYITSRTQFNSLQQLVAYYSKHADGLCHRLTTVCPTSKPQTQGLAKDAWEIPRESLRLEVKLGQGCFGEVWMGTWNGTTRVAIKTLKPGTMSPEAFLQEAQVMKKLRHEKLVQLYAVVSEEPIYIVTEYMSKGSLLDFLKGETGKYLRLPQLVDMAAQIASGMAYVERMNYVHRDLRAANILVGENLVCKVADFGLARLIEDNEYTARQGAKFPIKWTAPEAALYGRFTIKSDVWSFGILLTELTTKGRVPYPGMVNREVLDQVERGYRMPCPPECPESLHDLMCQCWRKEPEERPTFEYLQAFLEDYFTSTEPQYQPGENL

Ki (SRC): > 50000 nM
IC50 (FGFR2): 77 nM
SMILES: CNC(=O)c1cccc2cc(Oc3ccnc4cc(OCC5(N)CC5)c(OC)cc34)ccc12 [compound 1, E-3810]
autophosphorylation immunoblot (DDR2): increasing concentrations of E-3810 resulted in the reduction of DDR2 autophosphorylation
